This passage reports IC50 results from US10821115B2, “Compounds that inhibit Mcl-1 protein” (priority 2017, dated 2020).

In assay [1] the test system is human multiple myeloma cell line, OPM-2. Kind of assay: Cell viability assay (OPM-2 10 FBS), CellTiter-Glo. In kind it is cell-based. Put shortly: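 IC50 values come from 4-parameter logistic fits of luminescence signals reflecting cell viability. Treatment lasted 16 h at 37 °C in complete medium with 10% FBS, starting from 3000 cells/well.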
A general note: Cellular ATP, detected with luciferase, serves as a proxy for viable cell number.

Assay [2] concerns the target recombinant human Mcl-1 (residues 171-327) / Bim interaction (Homo sapiens (Human), UniProt Q07820). Kind of assay: biochemical. It counts as binding. To be noted: read-out: Mcl-1 HTRF IC50.
Where [3] appears, read: Homo sapiens, OPM-2, 16 h, read-out: OPM-2 10% FBS IC50 IP, OPM-2 cells, 10% FBS, 16 h, CellTiter-Glo.
Setting [4] is: TR-FRET, Mcl-1(171-327) / biotin-Bim (51-76).
The mark [5] stands for this setting: Homo sapiens, OPM-2, 16 h, read-out: OPM-2 10% FBS IC50 IP, OPM-2 cells, 10% FBS, 16 h incubation.
[6] abbreviates: 0.1 nM Mcl-1(171-327), 0.05 nM biotin-Bim (51-76).

Each structure is given as a SMILES string. Read-outs that look alike come from different tables or passages of the source.

recombinant human Mcl-1 (residues 171-327) / Bim interaction, sequence (Q07820 171-327): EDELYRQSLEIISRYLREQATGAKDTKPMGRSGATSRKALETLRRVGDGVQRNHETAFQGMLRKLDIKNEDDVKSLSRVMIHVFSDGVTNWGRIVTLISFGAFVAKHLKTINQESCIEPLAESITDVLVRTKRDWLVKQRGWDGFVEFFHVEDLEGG

In general, IC50 refers to the concentration that gives 50% inhibition. In the case of `C[C@@H]1[C@@H](C)C/C=C/[C@](O)(CC(=O)OCC2(C)COC2)[C@@H]2CC[C@H]2CN2C[C@@]3(CCCc4cc(Cl)ccc43)COc3ccc(cc32)C(=O)NS1(=O)=O` [Example 100298, (3-methyl-3-oxetanyl)methyl ((1S,3′R,6′R,7′R,8′E,11′S,12′R)-6-chloro-7′-hydroxy-11′,12′-dimethyl-13′,13′-dioxido-15′-oxo-3,4-dihydro-2H-spiro[naphthalene-1,22′-[20]oxa[13]thia[1,14]diazatetracyclo [14.7.2.0~3,6~.0~19,24~]pentacosa[8,16,18,24]tetraen]-7′-yl)acetate], the IC50 in assay [1] (setting [3]) was found to be 199 nM; in assay [2] (setting [4]), 0.14 nM.

As to `CNC[C@@]1(OC)/C=C/C[C@H](C)[C@@H](C)S(=O)(=O)NC(=O)c2ccc3c(c2)N(C[C@@H]2CC[C@H]21)C[C@@]1(CCCc2cc(Cl)ccc21)CO3` [Example 70, (1S,3′R,6′R,7′R,8′E,11′S,12′R)-6-chloro-7′-methoxy-11′,12′-dimethyl-7′-((methylamino)methyl)-3,4-dihydro-2H,15′H-spiro[naphthalene-1,22′-[20]oxa[13]thia[1,14]diazatetracyclo [14.7.2.0~3,6~.0~19,24~]pentacosa[8,16,18,24]tetraen]-15′-one 13′,13′-dioxide], the 50% inhibitory concentration (IC50) stood at 3140 nM in assay [1] (setting [5]) and 1.33 nM in assay [2] (setting [6]).

`COCC[C@@H]1[C@@H](C)C/C=C/[C@](OC)(C2SCCCS2)[C@@H]2CC[C@H]2CN2C[C@@]3(CCCc4cc(Cl)ccc43)COc3ccc(cc32)C(=O)NS1(=O)=O` [Example 100515, (1S,3′R,6′R,7′R,8′E,11′S,12′R)-6-chloro-7′-(1,3-dithian-2-yl)-7′-methoxy-12′-(2-methoxyethyl)-11′-methyl-3,4-dihydro-2H,15′H-spiro[naphthalene-1,22′-[20]oxa[13]thia[1,14]diazatetracyclo [14.7.2.0~3,6~.0~19,24~]pentacosa[8,16,18,24]tetraen]-15′-one 13′,13′-dioxide]: the 50% inhibitory concentration (IC50) in assay [1] (setting [3]) amounted to 585 nM; in assay [2] (setting [4]), 0.132 nM.

Consider `C[C@@H]1[C@@H](C)C/C=C/[C@](O)([C@H](O)C(=O)N(C)C)[C@@H]2CC[C@H]2CN2C[C@@]3(CCCc4cc(Cl)ccc43)COc3ccc(cc32)C(=O)NS1(=O)=O` [Example 100290, (2S)-2-((1S,3′R,6′R,7′R,8′E,11′S,12′R)-6-chloro-7′-hydroxy-11′,12′-dimethyl-13′,13′-dioxido-15′-oxo-3,4-dihydro-2H-spiro[naphthalene-1,22′-[20]oxa[13]thia[1,14]diazatetracyclo [14.7.2.0~3,6~.0~19,24~]pentacosa[8,16,18,24]tetraen]-7′-yl)-2-hydroxy-N,N-dimethylethanamide], for which the IC50 stood at 259 nM in assay [1] (setting [3]) and 0.116 nM in assay [2] (setting [4]).

On to `COC(=O)C[C@]1(O)/C=C/C[C@H](C)[C@@H](C)S(=O)(=O)NC(=O)c2ccc3c(c2)N(C[C@@H]2CC[C@H]21)C[C@@]1(CCCc2cc(Cl)ccc21)CO3` [Example 100288, methyl ((1S,3′R,6′R,7′S,8′E,11′S,12′R)-6-chloro-7′-hydroxy-11′,12′-dimethyl-13′,13′-dioxido-15′-oxo-3,4-dihydro-2H-spiro[naphthalene-1,22′-[20]oxa[13]thia[1,14]diazatetracyclo [14.7.2.0~3,6~.0~19,24~]pentacosa[8,16,18,24]tetraen]-7′-yl)acetate], for which the IC50 was 89 nM in assay [1] (setting [3]) and 0.103 nM in assay [2] (setting [4]).

Take `C[C@@H]1[C@@H](C)CCC[C@](C)(CN2CCOCC2)[C@@H]2CC[C@H]2CN2C[C@@]3(CCCc4cc(Cl)ccc43)COc3ccc(cc32)C(=O)NS1(=O)=O` [Example 100302, (1S,3′R,6′R,7′S,11′S,12′R)-6-chloro-7′,11′,12′-trimethyl-7′-(4-morpholinylmethyl)-3,4-dihydro-2H,15′H-spiro[naphthalene-1,22′-[20]oxa[13]thia[1,14]diazatetracyclo [14.7.2.0~3,6~.0~19,24~]pentacosa[16,18,24]trien]-15′-one 13′,13′-dioxide]: the IC50 was 4880 nM in assay [1] (setting [3]) and 3.8 nM in assay [2] (setting [4]).

For the compound `CC(C)O[C@]1(CN2CCN(C(C)C)[C@H](C)C2)/C=C/C[C@H](C)[C@@H](C)S(=O)(=O)NC(=O)c2ccc3c(c2)N(C[C@@H]2CC[C@H]21)C[C@@]1(CCCc2cc(Cl)ccc21)CO3` [Example 51], the IC50 in assay [1] (setting [5]) was 99 nM; in assay [2] (setting [6]), 0.072 nM.

Regarding `C[C@@H]1[C@@H](C)C/C=C/[C@@](O)(C[S@@+](C)[O-])[C@@H]2CC[C@H]2CN2C[C@@]3(CCCc4cc(Cl)ccc43)COc3ccc(cc32)C(=O)NS1(=O)=O` (stereo in doubt) [Example 100075], the IC50 in assay [1] (read-out: OPM-2 10% FBS IC50 IP, OPM-2 cells, 10% FBS, 16 h, CellTiter-Glo) amounted to 1820 nM; in assay [2] (setting [4]) it was 0.671 nM.

With `CCO[C@@]1(CN2CCN(C(COC)COC)CC2)/C=C/C[C@H](C)[C@@H](C)S(=O)(=O)NC(=O)c2ccc3c(c2)N(C[C@@H]2CC[C@H]21)C[C@@]1(CCCc2cc(Cl)ccc21)CO3` [Example 111, (1S,3′R,6′R,7′S,8′E,11′S,12′R)-6-chloro-7′-ethoxy-7′-((4-(2-methoxy-1-(methoxymethyl)ethyl)-1-piperazinyl)methyl)-11′,12′-dimethyl-3,4-dihydro-2H,15′H-spiro[naphthalene-1,22′-[20]oxa[13]thia[1,14]diazatetracyclo [14.7.2.0~3,6~.0~19,24~]pentacosa[8,16,18,24]tetraen]-15′-one 13′,13′-dioxide], the IC50 in assay [1] (setting [5]) came out at 301 nM; in assay [2] (setting [6]), 0.362 nM.

Consider `CO[C@]1(CN2CCN3CCCC[C@@H]3C2)/C=C/[C@H](C)[C@H](C)CS(=O)(=O)NC(=O)c2ccc3c(c2)N(C[C@@H]2CC[C@H]21)C[C@@]1(CCCc2cc(Cl)ccc21)CO3` [Example 161, (1S,3′R,6′R,7′R,8′E,10′S,11′S)-6-chloro-7′-methoxy-10′,11′-dimethyl-7′-((9aR)-octahydro-2H-pyrido[1,2-a]pyrazin-2-ylmethyl)-3,4-dihydro-2H,15′H-spiro[naphthalene-1,22′-[20]oxa[13]thia[1,14]diazatetracyclo [14.7.2.0~3,6~.0~19,24~]pentacosa[8,16,18,24]tetraen]-15′-one 13′,13′-dioxide], for which the IC50 in assay [1] (setting [5]) came to 113 nM; in assay [2] (setting [6]) it was 0.094 nM.

On to `C[C@@H]1[C@@H](C)CCC[C@](CO)(OCCN2CCOCC2)[C@@H]2CC[C@H]2CN2C[C@@]3(CCCc4cc(Cl)ccc43)COc3ccc(cc32)C(=O)NS1(=O)=O` [Example 100280, (1S,3′R,6′R,7′S,11′S,12′R)-6-chloro-7′-(hydroxymethyl)-11′,12′-dimethyl-7′-(2-(4-morpholinyl)ethoxy)-3,4-dihydro-2H,15′H-spiro[naphthalene-1,22′-[20]oxa[13]thia[1,14]diazatetracyclo [14.7.2.0~3,6~.0~19,24~]pentacosa[16,18,24]trien]-15′-one 13′,13′-dioxide], for which the IC50 in assay [1] (setting [3]) turned out to be 305 nM; in assay [2] (setting [4]) it was 0.368 nM.

`CO[C@]1(CN2CCN3CCCC[C@@H]3C2)/C=C/C[C@H](C)[C@@H](CCN2CCOCC2)S(=O)(=O)NC(=O)c2ccc3c(c2)N(C[C@@H]2CC[C@H]21)C[C@@]1(CCCc2cc(Cl)ccc21)CO3` [Example 365, (1S,3′R,6′R,7′R,8′E,11′S,12′R)-6-chloro-7′-methoxy-11′-methyl-12′-(2-(4-morpholinyl)ethyl)-7′-((9aR)-octahydro-2H-pyrido[1,2-a]pyrazin-2-ylmethyl)-3,4-dihydro-2H,15′H-spiro[naphthalene-1,22′-[20]oxa[13]thia[1,14]diazatetracyclo [14.7.2.0~3,6~.0~19,24~]pentacosa[8,16,18,24]tetraen]-15′-one 13′,13′-dioxide]: the IC50 in assay [1] (setting [5]) amounted to 32 nM; in assay [2] (setting [6]), 0.104 nM.
